# Source: PubChem BioAssay AID2060486 (Molecular Pharmacology Branch, DTP, NCI, 2025)
# “And” between values parts separate entries of the source, which are not always exact repeats. Equal values may be shown once.
# Test system: IGROV1 complex spheroids (HUVEC, MSC), viability % test/control
# Assay: Anticancer human tumor IGROV1 cell line growth inhibition [GQUAD];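 note: spheroids exposed to compounds for 7 days before readout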
# Conditions: for viability, T/C: stronger effect = lower value
# From the text: DNA G-quadruplex Stabilizer Agents in Combinations in Complex Spheroids
# A high-throughput screen of multi-cell type tumor spheroids was designed to identify active combinations of DNA G-quadruplex stabilizer agents and targeted small molecules. Complex spheroids include a stromal component modeled by human endothelial cells (HUVEC) and fibroblasts modeled by human mesenchymal stem cells (MSCs). The concentration ranges selected for each drug and investigational agent were based upon clinically achievable concentrations if the clinical Cmax of the agent was known.
# Compounds. The drugs and investigational agents: pidnarulex (CX-5461; NSC782164), APTO-253 (NSC789042), BRACO-19 (NSC847499), peposertib (NSC802822), ceralasertib (NSC780249), elimusertib (NSC800525), camonsertib (NSC841442), AZD-1390 (NSC803789), olaparib (NSC753686), talazoparib (NSC767125), ART-558 (NSC835418), sotorasib (NSC818433), MRTX-1133 (NSC836407), SN-38 (NSC673596), topotecan (NSC609699), etoposide (NSC141540), doxorubicin (NSC123127), gemcitabine (NSC613327), 5-fluorouracil (NSC19893), paclitaxel (NSC125973), vemurafenib (NSC761431), panobinostat (NSC761190), R-306465 (JNJ-16241199; NSC773264), adavosertib (NSC754352), TP-3654 (NSC805149), carboplatin (NSC241240), KSQ-4279 (NSC840948), and staurosporine (NSC755774) were obtained from the National Cancer Institute (NCI) Developmental Therapeutics Program Chemical Repository (34). The FDA-approved anticancer drug set is available from the NCI Developmental Therapeutics Program. […] The stock solutions were prepared in dimethyl sulfoxide (DMSO, Sigma-Aldrich, St. Louis, MO, cat. D2650) at 800-fold the tested concentration and stored at -70 degrees C prior to their use. All drugs and investigational agents were tested over a range starting from a high concentration at or near the clinical Cmax and decreasing in half-log increments. If the clinical Cmax for an agent had not been determined, the highest concentration tested was 10 microM.
# 2.3 Cell Culture. All cells were maintained in an incubator at 37 degrees C and 5% CO2 with 95% humidity. The PDC lines were cultured according to standard operating procedures established by the NCI PDMR. All PDCs were thawed and cultured in Matrigel-coated flasks prepared with a working solution of 1X Ham's F-12 nutrient mix, without supplementation (Invitrogen, cat. 11765054), 100 U/mL penicillin-streptomycin (Invitrogen, cat. 15140122), and 2.5% Matrigel (Corning Inc., cat. 354248) for the first three passages. The 857933-349-R-J2-PDC line was cultured in 6C/Colon 1B media, which includes advanced DMEM/F-12 (Thermo Fisher Scientific, cat. 12634028), 10 mM HEPES (Thermo Fisher Scientific, cat. 15630080), 1X GlutaMAX supplement (Thermo Fisher Scientific, cat. 35050061), 0.1 mg/mL primocin (InvivoGen, cat. ant-pm-2), 10% defined fetal bovine serum, heat inactivated (HyClone Laboratories Inc., cat. SH30070.03HI), 50% L-WRN conditioned media (ATCC, cat. CRL-3276), 1.25 mM N-Acetyl-L-cysteine (Sigma-Aldrich, cat. A9165), 10 mM nicotinamide (Sigma-Aldrich, cat. N0636), 1X B-27 supplement (Thermo Fisher Scientific, cat. 17504044), 1X N-2 supplement (Thermo Fisher Scientific, cat. 17502048), 10 microM Y-27632 dihydrochloride (Tocris Bioscience, cat. 1254), and 50 ng/mL human EGF recombinant protein (Thermo Fisher Scientific, cat. PHG0311). The 485176-168-R4-J1-PDC line was cultured in Panc media, which includes all 6C/Colon 1B media components plus 100 ng/mL human FGF-10 (Thermo Fisher Scientific, cat. 100-26), 500 nM SB-431542 (Selleckchem, cat. S1067), and gastrin (Tocris, cat. 3006).
# […]
# [1] = curve of first compound, second compound 0.0316 µM
# [2] = curve of first compound, second compound 0.1 µM
# [3] = curve of first compound, second compound 0.316 µM
# [4] = curve of first compound, second compound 1 µM
# [5] = curve of first compound, second compound 3.16 µM
# [6] = curve of first compound, second compound 10 µM
# [7] = second compound 0.0316 µM, first compound 0.0316 µM
# [8] = second compound 0.0316 µM, first compound 0.316 µM
# [9] = second compound 0.1 µM, first compound 0.0316 µM
# [10] = second compound 0.1 µM, first compound 0.316 µM
# [11] = second compound 0.316 µM, first compound 0.0316 µM
# [12] = second compound 0.316 µM, first compound 0.316 µM
# [13] = second compound 1 µM, first compound 0.0316 µM
# [14] = second compound 1 µM, first compound 0.316 µM
# [15] = second compound 3.16 µM, first compound 0.0316 µM
# [16] = second compound 3.16 µM, first compound 0.316 µM
# [17] = second compound 10 µM, first compound 0.0316 µM
# [18] = second compound 10 µM, first compound 0.316 µM
structure (smiles),measurement,setting,value
CN(C)c1ccc(Nc2c3ccc(NC(=O)CCN4CCCC4)cc3nc3cc(NC(=O)CCN4CCCC4)ccc23)cc1,"viability, T/C",compound 0.0316 µM,103% [middle of 12 runs]
same,"viability, T/C",compound 0.1 µM,101% [middle of 12 runs]
same,"viability, T/C",compound 0.316 µM,103% [middle of 12 runs]
same,"viability, T/C",compound 1 µM,100% [middle of 12 runs]
same,"viability, T/C",compound 3.16 µM,87.4% [middle of 12 runs]
same,"viability, T/C",compound 10 µM,52.3% [middle of 12 runs]
CC(=O)O[C@H]1C(=O)[C@@]2(C)[C@H]([C@H](OC(=O)c3ccccc3)[C@]3(O)C[C@H](OC(=O)[C@H](O)[C@@H](NC(=O)c4ccccc4)c4ccccc4)C(C)=C1C3(C)C)[C@]1(OC(C)=O)CO[C@@H]1C[C@@H]2O,"viability, T/C",compound 0.0316 µM,5.95% and 6.39% and 7.02%
same,"viability, T/C",compound 0.1 µM,6.41% and 7.03% and 6.33%
same,"viability, T/C",compound 0.316 µM,5.74% and 6.73% and 6.26%
same,"viability, T/C",compound 1 µM,5.25% and 5.94% and 5.15%
same,"viability, T/C",compound 3.16 µM,5.64% and 4.86% and 4.9%
same,"viability, T/C",compound 10 µM,4.25% and 4.95% and 4.52%
same,IC50,curve of compound,< 31.6 nM
CC[C@@]1(O)C(=O)OCc2c1cc1n(c2=O)Cc2cc3c(CN(C)C)c(O)ccc3nc2-1 + CN(C)c1ccc(Nc2c3ccc(NC(=O)CCN4CCCC4)cc3nc3cc(NC(=O)CCN4CCCC4)ccc23)cc1,IC50,[1],22.1 nM
same,IC50,[2],24.5 nM
same,IC50,[3],25 nM
same,IC50,[4],22.8 nM
same,IC50,[5],29.3 nM
same,IC50,[6],< 0.999 nM
same,"viability, T/C","second compound 0.0316 µM, first compound 0.000999 µM",98.2%
same,"viability, T/C","second compound 0.0316 µM, first compound 0.00316 µM",95.7%
same,"viability, T/C","second compound 0.0316 µM, first compound 0.00999 µM",93.1%
same,"viability, T/C",[7],30.5%
same,"viability, T/C","second compound 0.0316 µM, first compound 0.0999 µM",12.2%
same,"viability, T/C",[8],10.9%
same,"viability, T/C","second compound 0.1 µM, first compound 0.000999 µM",98.1%
same,"viability, T/C","second compound 0.1 µM, first compound 0.00316 µM",87.8%
same,"viability, T/C","second compound 0.1 µM, first compound 0.00999 µM",86%
same,"viability, T/C",[9],39.7%
same,"viability, T/C","second compound 0.1 µM, first compound 0.0999 µM",13.5%
same,"viability, T/C",[10],9.48%
same,"viability, T/C","second compound 0.316 µM, first compound 0.000999 µM",94.5%
same,"viability, T/C","second compound 0.316 µM, first compound 0.00316 µM",87.5%
same,"viability, T/C","second compound 0.316 µM, first compound 0.00999 µM",91.8%
same,"viability, T/C",[11],39.4%
same,"viability, T/C","second compound 0.316 µM, first compound 0.0999 µM",12.4%
same,"viability, T/C",[12],12.2%
same,"viability, T/C","second compound 1 µM, first compound 0.000999 µM",87.5%
same,"viability, T/C","second compound 1 µM, first compound 0.00316 µM",81.7%
same,"viability, T/C","second compound 1 µM, first compound 0.00999 µM",75.9%
same,"viability, T/C",[13],40.5%
same,"viability, T/C","second compound 1 µM, first compound 0.0999 µM",9.84%
same,"viability, T/C",[14],12.7%
same,"viability, T/C","second compound 3.16 µM, first compound 0.000999 µM",70.5%
same,"viability, T/C","second compound 3.16 µM, first compound 0.00316 µM",89.4%
same,"viability, T/C","second compound 3.16 µM, first compound 0.00999 µM",77.4%
same,"viability, T/C",[15],48.1%
same,"viability, T/C","second compound 3.16 µM, first compound 0.0999 µM",13.5%
same,"viability, T/C",[16],10.8%
same,"viability, T/C","second compound 10 µM, first compound 0.000999 µM",42.9%
same,"viability, T/C","second compound 10 µM, first compound 0.00316 µM",35%
same,"viability, T/C","second compound 10 µM, first compound 0.00999 µM",37%
same,"viability, T/C",[17],19.1%
same,"viability, T/C","second compound 10 µM, first compound 0.0999 µM",9.45%
same,"viability, T/C",[18],6.49%
O=c1[nH]cc(F)c(=O)[nH]1 + Cc1cnc(CNC(=O)c2c(=O)c3ccc(N4CCCN(C)CC4)nc3n3c2sc2ccccc23)cn1,IC50,[1],4520 nM
same,IC50,[2],< 31.6 nM
same,IC50,[3],< 31.6 nM
same,IC50,[4],< 31.6 nM
same,IC50,[5],< 31.6 nM
same,IC50,[6],< 31.6 nM
same,"viability, T/C",[7],69.8%
same,"viability, T/C","second compound 0.0316 µM, first compound 0.1 µM",66.3%
same,"viability, T/C",[8],51.5%
same,"viability, T/C","second compound 0.0316 µM, first compound 1 µM",66.9%
same,"viability, T/C","second compound 0.0316 µM, first compound 3.16 µM",63.7%
same,"viability, T/C","second compound 0.0316 µM, first compound 10 µM",20.2%
same,"viability, T/C",[9],39.9%
same,"viability, T/C","second compound 0.1 µM, first compound 0.1 µM",38.9%
same,"viability, T/C",[10],41.9%
same,"viability, T/C","second compound 0.1 µM, first compound 1 µM",36.1%
same,"viability, T/C","second compound 0.1 µM, first compound 3.16 µM",35.7%
same,"viability, T/C","second compound 0.1 µM, first compound 10 µM",17.7%
same,"viability, T/C",[11],27.9%
same,"viability, T/C","second compound 0.316 µM, first compound 0.1 µM",23.6%
same,"viability, T/C",[12],29.5%
same,"viability, T/C","second compound 0.316 µM, first compound 1 µM",25.2%
same,"viability, T/C","second compound 0.316 µM, first compound 3.16 µM",25.8%
same,"viability, T/C","second compound 0.316 µM, first compound 10 µM",15.1%
same,"viability, T/C",[13],15.6%
same,"viability, T/C","second compound 1 µM, first compound 0.1 µM",15.3%
same,"viability, T/C",[14],17.3%
same,"viability, T/C","second compound 1 µM, first compound 1 µM",19%
same,"viability, T/C","second compound 1 µM, first compound 3.16 µM",20.4%
same,"viability, T/C","second compound 1 µM, first compound 10 µM",9.16%
same,"viability, T/C",[15],11.3%
same,"viability, T/C","second compound 3.16 µM, first compound 0.1 µM",15.5%
same,"viability, T/C",[16],14.1%
same,"viability, T/C","second compound 3.16 µM, first compound 1 µM",9.51%
same,"viability, T/C","second compound 3.16 µM, first compound 3.16 µM",12.9%
same,"viability, T/C","second compound 3.16 µM, first compound 10 µM",7.27%
same,"viability, T/C",[17],11.2%
same,"viability, T/C","second compound 10 µM, first compound 0.1 µM",8.66%
same,"viability, T/C",[18],10.8%
same,"viability, T/C","second compound 10 µM, first compound 1 µM",9.81%
same,"viability, T/C","second compound 10 µM, first compound 3.16 µM",9.32%
same,"viability, T/C","second compound 10 µM, first compound 10 µM",5.96%
